Experimental data as given in patent US8158636B2, “Compounds and methods for kinase modulation, and indications therefor” (Plexxikon Inc., priority 2008, dated 2012).

Columns and labels:
Assay type in all cases: biochemical
B-Raf V600E = B-Raf V600E (Homo sapiens, UniProt P15056, V600E); assay: Kinase activity assay, B-Raf V600E; conditions: Table 1c; read-out: activity toward kinase B-Raf V600E, IC50
From the text: (§1) Assays for the activity of kinases, including, but not limited to, Fms, Kit, B-Raf, B-Raf V600E, c-Raf-1, and TrkA are known in the art, for example as described in US Patent Publication Number US20070032519 and U.S. patent application Ser. No. 11/473,347 (see also, PCT publication WO2007002433), the disclosures of which are hereby incorporated by reference with respect to such assays.

Fms = Fms (Homo sapiens, UniProt P07333); assay: Kinase activity assay, Fms; conditions: Table 1h; read-out: activity toward kinase Fms, IC50
Sequence of Fms (P07333 20-972): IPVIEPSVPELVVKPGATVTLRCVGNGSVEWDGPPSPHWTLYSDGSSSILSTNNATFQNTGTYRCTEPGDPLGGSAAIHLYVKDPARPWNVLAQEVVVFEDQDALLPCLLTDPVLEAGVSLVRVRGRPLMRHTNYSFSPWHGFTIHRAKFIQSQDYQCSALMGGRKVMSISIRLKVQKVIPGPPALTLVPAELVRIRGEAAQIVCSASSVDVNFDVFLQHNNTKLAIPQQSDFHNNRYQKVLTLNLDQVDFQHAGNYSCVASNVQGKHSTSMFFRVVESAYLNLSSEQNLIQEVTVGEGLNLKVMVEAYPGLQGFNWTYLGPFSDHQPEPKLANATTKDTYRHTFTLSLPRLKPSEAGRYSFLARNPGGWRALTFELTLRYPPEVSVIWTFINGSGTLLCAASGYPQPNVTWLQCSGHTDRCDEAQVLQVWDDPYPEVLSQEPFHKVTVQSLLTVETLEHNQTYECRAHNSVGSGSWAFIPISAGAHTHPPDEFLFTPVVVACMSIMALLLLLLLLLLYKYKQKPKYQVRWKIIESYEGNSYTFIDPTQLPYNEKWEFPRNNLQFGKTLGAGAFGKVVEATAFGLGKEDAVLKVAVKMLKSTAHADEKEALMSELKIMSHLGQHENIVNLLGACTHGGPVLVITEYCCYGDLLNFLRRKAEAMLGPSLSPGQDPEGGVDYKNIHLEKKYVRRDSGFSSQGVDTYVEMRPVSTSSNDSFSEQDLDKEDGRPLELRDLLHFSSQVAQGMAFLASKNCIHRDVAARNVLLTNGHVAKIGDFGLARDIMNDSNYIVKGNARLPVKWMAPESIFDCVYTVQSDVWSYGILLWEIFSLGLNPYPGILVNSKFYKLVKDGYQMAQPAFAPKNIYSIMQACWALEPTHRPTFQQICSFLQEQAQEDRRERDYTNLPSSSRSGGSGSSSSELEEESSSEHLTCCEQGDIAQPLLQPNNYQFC
From the text: as §1

Kdr = Kdr (Homo sapiens, UniProt P35968); assay: Kinase activity assay, Kdr; conditions: Table 1i; read-out: activity toward kinase Kdr, IC50
Sequence of Kdr (P35968 20-1356): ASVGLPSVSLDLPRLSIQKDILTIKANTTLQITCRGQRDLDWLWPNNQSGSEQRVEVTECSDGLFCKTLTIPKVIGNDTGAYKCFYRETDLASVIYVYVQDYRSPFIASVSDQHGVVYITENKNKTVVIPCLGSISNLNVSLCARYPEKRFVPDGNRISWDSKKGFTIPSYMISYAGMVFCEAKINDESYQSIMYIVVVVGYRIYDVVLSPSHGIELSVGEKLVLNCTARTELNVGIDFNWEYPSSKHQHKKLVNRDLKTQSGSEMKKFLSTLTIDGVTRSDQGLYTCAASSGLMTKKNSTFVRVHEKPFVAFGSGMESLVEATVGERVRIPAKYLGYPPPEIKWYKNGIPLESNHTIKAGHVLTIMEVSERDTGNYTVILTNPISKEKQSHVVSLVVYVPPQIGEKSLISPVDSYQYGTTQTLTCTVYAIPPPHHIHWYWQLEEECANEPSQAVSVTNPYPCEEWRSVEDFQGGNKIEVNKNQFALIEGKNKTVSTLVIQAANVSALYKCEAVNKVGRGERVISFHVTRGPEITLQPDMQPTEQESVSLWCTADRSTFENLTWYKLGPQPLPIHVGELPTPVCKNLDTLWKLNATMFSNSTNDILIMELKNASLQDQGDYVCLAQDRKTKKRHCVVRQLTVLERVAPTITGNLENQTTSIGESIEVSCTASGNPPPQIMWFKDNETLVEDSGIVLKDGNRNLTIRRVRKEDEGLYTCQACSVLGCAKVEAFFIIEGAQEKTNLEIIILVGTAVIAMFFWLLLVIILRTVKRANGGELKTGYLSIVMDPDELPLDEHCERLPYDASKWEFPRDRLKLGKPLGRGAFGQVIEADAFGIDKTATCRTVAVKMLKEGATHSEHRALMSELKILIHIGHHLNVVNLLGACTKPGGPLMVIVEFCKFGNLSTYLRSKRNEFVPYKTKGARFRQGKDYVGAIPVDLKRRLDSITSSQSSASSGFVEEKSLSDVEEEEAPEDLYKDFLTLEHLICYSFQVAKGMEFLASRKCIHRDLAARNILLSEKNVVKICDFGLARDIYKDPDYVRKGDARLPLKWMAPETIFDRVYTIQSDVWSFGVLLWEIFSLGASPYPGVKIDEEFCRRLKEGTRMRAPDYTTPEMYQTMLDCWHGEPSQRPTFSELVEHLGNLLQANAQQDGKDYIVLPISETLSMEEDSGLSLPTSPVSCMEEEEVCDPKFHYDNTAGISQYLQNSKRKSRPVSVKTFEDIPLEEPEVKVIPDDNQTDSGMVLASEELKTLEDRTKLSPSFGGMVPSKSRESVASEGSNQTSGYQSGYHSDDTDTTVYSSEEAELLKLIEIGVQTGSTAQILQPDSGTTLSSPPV
From the text: as §1

TrkA = TrkA (Homo sapiens, UniProt P04629); assay: Kinase activity assay, TrkA; conditions: Table 1m; read-out: activity toward kinase TrkA, IC50
Sequence of TrkA (P04629 33-796): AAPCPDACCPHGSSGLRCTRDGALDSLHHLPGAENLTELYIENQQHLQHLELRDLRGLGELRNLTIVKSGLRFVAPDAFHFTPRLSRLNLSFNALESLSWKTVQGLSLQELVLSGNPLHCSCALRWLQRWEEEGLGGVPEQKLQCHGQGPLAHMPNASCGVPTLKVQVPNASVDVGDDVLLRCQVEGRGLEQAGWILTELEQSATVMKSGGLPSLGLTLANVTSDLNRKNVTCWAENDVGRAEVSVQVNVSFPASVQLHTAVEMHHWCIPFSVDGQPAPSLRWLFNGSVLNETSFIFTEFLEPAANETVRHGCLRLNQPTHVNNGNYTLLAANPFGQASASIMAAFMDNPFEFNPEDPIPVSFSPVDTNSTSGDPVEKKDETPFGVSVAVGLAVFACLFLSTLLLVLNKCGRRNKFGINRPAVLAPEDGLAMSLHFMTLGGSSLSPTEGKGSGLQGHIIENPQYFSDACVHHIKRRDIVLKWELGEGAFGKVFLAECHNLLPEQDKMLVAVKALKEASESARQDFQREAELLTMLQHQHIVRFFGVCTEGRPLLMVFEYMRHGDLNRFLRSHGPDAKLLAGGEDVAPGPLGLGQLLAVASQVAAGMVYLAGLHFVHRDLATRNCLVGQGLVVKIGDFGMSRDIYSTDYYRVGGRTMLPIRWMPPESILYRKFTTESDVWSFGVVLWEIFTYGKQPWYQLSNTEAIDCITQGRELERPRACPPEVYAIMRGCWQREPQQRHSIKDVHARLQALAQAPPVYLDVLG
From the text: as §1

Kit = Kit (Homo sapiens, UniProt P10721); assay: Kinase activity assay, Kit; conditions: Table 1j; read-out: activity toward kinase Kit, IC50
Sequence of Kit (P10721 26-976): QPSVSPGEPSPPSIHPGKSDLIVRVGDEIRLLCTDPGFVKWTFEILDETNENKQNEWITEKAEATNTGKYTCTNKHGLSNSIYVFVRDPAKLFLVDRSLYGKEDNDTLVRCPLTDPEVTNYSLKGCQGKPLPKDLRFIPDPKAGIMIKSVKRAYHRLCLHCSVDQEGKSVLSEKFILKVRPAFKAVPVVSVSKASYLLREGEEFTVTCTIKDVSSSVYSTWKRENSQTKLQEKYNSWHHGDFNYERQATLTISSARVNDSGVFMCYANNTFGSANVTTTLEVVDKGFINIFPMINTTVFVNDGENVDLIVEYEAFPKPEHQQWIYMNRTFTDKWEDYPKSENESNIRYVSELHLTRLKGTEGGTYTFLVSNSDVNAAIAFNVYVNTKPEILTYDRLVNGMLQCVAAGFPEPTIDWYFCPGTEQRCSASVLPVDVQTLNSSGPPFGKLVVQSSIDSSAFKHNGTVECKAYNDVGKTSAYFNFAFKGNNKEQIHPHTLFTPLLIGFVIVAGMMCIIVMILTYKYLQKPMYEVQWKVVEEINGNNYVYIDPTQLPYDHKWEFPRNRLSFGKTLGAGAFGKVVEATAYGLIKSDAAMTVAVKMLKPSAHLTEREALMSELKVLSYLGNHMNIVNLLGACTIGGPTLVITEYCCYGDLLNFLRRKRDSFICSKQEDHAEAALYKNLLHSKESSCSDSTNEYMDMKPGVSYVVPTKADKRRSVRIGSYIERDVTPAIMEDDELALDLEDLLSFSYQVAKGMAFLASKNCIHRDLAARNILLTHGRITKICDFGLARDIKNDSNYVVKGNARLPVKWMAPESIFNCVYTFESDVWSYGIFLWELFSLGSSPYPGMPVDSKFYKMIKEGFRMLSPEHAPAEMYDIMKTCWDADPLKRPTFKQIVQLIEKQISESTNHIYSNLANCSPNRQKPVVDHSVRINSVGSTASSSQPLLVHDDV
From the text: as §1

Measured: IC50

Sequence of B-Raf V600E (P15056 whole entry V600E): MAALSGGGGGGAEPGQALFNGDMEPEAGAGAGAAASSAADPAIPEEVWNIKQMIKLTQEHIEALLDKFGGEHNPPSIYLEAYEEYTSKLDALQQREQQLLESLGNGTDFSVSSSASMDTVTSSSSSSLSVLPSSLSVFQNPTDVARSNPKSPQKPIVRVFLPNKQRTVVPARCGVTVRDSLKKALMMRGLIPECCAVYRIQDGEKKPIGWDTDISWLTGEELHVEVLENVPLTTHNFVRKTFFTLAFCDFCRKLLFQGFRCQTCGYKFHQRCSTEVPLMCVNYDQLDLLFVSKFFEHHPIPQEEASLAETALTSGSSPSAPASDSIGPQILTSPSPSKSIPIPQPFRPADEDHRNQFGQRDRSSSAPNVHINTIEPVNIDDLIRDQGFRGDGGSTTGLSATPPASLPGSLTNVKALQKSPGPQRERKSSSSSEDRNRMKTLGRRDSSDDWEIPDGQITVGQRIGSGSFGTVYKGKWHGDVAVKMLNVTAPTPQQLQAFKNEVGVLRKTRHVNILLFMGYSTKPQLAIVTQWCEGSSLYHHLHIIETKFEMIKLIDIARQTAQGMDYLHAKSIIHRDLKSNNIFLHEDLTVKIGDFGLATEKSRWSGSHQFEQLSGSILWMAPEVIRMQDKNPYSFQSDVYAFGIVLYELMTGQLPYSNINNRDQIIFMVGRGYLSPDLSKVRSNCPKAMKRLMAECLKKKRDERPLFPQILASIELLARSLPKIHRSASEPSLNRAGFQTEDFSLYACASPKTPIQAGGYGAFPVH

Fc1cncc(CNc2ccc(Cc3c[nH]c4ncncc34)c(F)n2)c1 [P-0050, (5-Fluoro-pyridin-3-ylmethyl)-[6-fluoro-5-(7H-pyrrolo[2,3-d]pyrimidin-5-ylmethyl)-pyridin-2-yl]-amine]
≤ 10 µM: B-Raf V600E | Fms

Fc1nc(NCc2ccnc(C(F)(F)F)c2)ccc1Cc1c[nH]c2ncncc12 [P-0075, [6-Fluoro-5-(7H-pyrrolo[2,3-d]pyrimidin-5-ylmethyl)-pyridin-2-yl]-(2-trifluoromethyl-pyridin-4-ylmethyl)-amine]
≤ 10 µM: Kdr | Fms | TrkA

Cc1ccc(CNc2ccc(Cc3c[nH]c4ncncc34)c(F)n2)nc1 [P-0062, [6-Fluoro-5-(7H-pyrrolo[2,3-d]pyrimidin-5-ylmethyl)-pyridin-2-yl]-(5-methyl-pyridin-2-ylmethyl)-amine]
not listed: TrkA
≤ 10 µM: all other assays above

N#Cc1cc(CNc2ccc(Cc3c[nH]c4ncncc34)c(F)n2)ccn1 [P-0073, 4-{[6-Fluoro-5-(7H-pyrrolo[2,3-d]pyrimidin-5-ylmethyl)-pyridin-2-ylamino]-methyl}-pyridine-2-carbonitrile]
≤ 10 µM: Kdr | B-Raf V600E | Fms

Fc1ncc(Cl)cc1CNc1ccc(Cc2c[nH]c3ncncc23)c(F)n1 [P-0077, (5-Chloro-2-fluoro-pyridin-3-ylmethyl)-[6-fluoro-5-(7H-pyrrolo[2,3-d]pyrimidin-5-ylmethyl)-pyridin-2-yl]-amine]
≤ 10 µM: B-Raf V600E | Fms

COc1cc(CNc2ccc(Cc3c[nH]c4ncncc34)c(F)n2)cc(OC)c1 [P-0065, (3,5-Dimethoxy-benzyl)-[6-fluoro-5-(7H-pyrrolo[2,3-d]pyrimidin-5-ylmethyl)-pyridin-2-yl]-amine]
≤ 10 µM: Kdr | Fms | TrkA

COc1ncc(F)cc1CNc1ncc(Cc2c[nH]c3ncncc23)cn1 [P-0022, (5-Fluoro-2-methoxy-pyridin-3-ylmethyl)-[5-(7H-pyrrolo[2,3-d]pyrimidin-5-ylmethyl)-pyrimidin-2-yl]-amine]
not listed: TrkA
≤ 10 µM: all other assays above

COc1cc(CNc2ccc(Cc3c[nH]c4ncncc34)c(F)n2)cc(OC)c1OC [P-0037, [6-Fluoro-5-(7H-pyrrolo[2,3-d]pyrimidin-5-ylmethyl)-pyridin-2-yl]-(3,4,5-trimethoxy-benzyl)-amine]
≤ 10 µM: Kdr | B-Raf V600E | Fms

COc1ccc(OC)c(CNc2ccc(Cc3c[nH]c4ncncc34)c(F)n2)c1 [P-0038, (2,5-Dimethoxy-benzyl)-[6-fluoro-5-(7H-pyrrolo[2,3-d]pyrimidin-5-ylmethyl)-pyridin-2-yl]-amine]
≤ 10 µM: B-Raf V600E | Kit | Fms

Fc1nc(NCc2cccnc2C(F)(F)F)ccc1Cc1c[nH]c2ncncc12 [P-0071, [6-Fluoro-5-(7H-pyrrolo[2,3-d]pyrimidin-5-ylmethyl)-pyridin-2-yl]-(2-trifluoromethyl-pyridin-3-ylmethyl)-amine]
≤ 10 µM: Kdr | Fms | TrkA

COc1ncc(F)cc1CNc1ccc(Cc2c[nH]c3ncnc(O)c23)cn1 [P-0099, 5-{6-[(5-Fluoro-2-methoxy-pyridin-3-ylmethyl)-amino]-pyridin-3-ylmethyl}-7H-pyrrolo[2,3-d]pyrimidin-4-ol]
≤ 10 µM: Kit | Fms | TrkA

Fc1nc(NCc2ccc(Br)cn2)ccc1Cc1c[nH]c2ncncc12 [P-0053, (5-Bromo-pyridin-2-ylmethyl)-[6-fluoro-5-(7H-pyrrolo[2,3-d]pyrimidin-5-ylmethyl)-pyridin-2-yl]-amine]
not listed: TrkA
≤ 10 µM: all other assays above

Fc1cnc(Cl)cc1CNc1ccc(Cc2c[nH]c3ncncc23)c(F)n1 [P-0072, (2-Chloro-5-fluoro-pyridin-4-ylmethyl)-[6-fluoro-5-(7H-pyrrolo[2,3-d]pyrimidin-5-ylmethyl)-pyridin-2-yl]-amine]
≤ 10 µM: Kdr | B-Raf V600E | Fms

C[C@H](Nc1ccc(Cc2c[nH]c3ncncc23)c(F)n1)c1ccc(F)cc1 [P-0016, [(S)-1-(4-Fluoro-phenyl)-ethyl]-[6-fluoro-5-(7H-pyrrolo[2,3-d]pyrimidin-5-ylmethyl)-pyridin-2-yl]-amine]
not listed: TrkA
≤ 10 µM: all other assays above

c1cc(CNc2ncc(Cc3c[nH]c4ncncc34)cn2)cc(N2CCOCC2)n1 [P-0036, (2-Morpholin-4-yl-pyridin-4-ylmethyl)-[5-(7H-pyrrolo[2,3-d]pyrimidin-5-ylmethyl)-pyrimidin-2-yl]-amine]
≤ 10 µM: Kdr | Kit | Fms

CCCCc1ncc(CNc2ccc(Cc3c[nH]c4ncncc34)c(F)n2)cn1 [P-0081, (2-Butyl-pyrimidin-5-ylmethyl)-[6-fluoro-5-(7H-pyrrolo[2,3-d]pyrimidin-5-ylmethyl)-pyridin-2-yl]-amine]
≤ 10 µM: Kdr | B-Raf V600E | Fms

CS(=O)(=O)c1cc(Cl)ccc1CNc1ccc(Cc2c[nH]c3ncncc23)c(F)n1 [P-0060, (4-Chloro-2-methanesulfonyl-benzyl)-[6-fluoro-5-(7H-pyrrolo[2,3-d]pyrimidin-5-ylmethyl)-pyridin-2-yl]-amine]
≤ 10 µM: Kdr | B-Raf V600E | Fms

Fc1nc(NCc2ccnc(Cl)c2)ccc1Cc1c[nH]c2ncncc12 [P-0076, (2-Chloro-pyridin-4-ylmethyl)-[6-fluoro-5-(7H-pyrrolo[2,3-d]pyrimidin-5-ylmethyl)-pyridin-2-yl]-amine]
≤ 10 µM: Kdr | B-Raf V600E | Fms

COc1cc(CNc2ccc(Cc3c[nH]c4ncncc34)c(F)n2)c(F)cn1 [P-0021, (5-Fluoro-2-methoxy-pyridin-4-ylmethyl)-[6-fluoro-5-(7H-pyrrolo[2,3-d]pyrimidin-5-ylmethyl)-pyridin-2-yl]-amine]
≤ 10 µM: Kdr | B-Raf V600E | Fms

Fc1nc(NCc2ccc(Cl)nc2)ccc1Cc1c[nH]c2ncncc12 [P-0045, (6-Chloro-pyridin-3-ylmethyl)-[6-fluoro-5-(7H-pyrrolo[2,3-d]pyrimidin-5-ylmethyl)-pyridin-2-yl]-amine]
not listed: TrkA
≤ 10 µM: all other assays above

COc1cncc(CNc2ccc(Cc3c[nH]c4ncncc34)c(F)n2)c1 [P-0040, [6-Fluoro-5-(7H-pyrrolo[2,3-d]pyrimidin-5-ylmethyl)-pyridin-2-yl]-(5-methoxy-pyridin-3-ylmethyl)-amine]
≤ 10 µM: B-Raf V600E | Fms

CCc1ncc(CNc2ccc(Cc3c[nH]c4ncncc34)c(F)n2)cn1 [P-0078, (2-Ethyl-pyrimidin-5-ylmethyl)-[6-fluoro-5-(7H-pyrrolo[2,3-d]pyrimidin-5-ylmethyl)-pyridin-2-yl]-amine]
≤ 10 µM: Kdr | B-Raf V600E | Fms

COc1ccc(CNc2ncc(Cc3c[nH]c4ncncc34)cc2F)cn1 [P-0017, [3-Fluoro-5-(7H-pyrrolo[2,3-d]pyrimidin-5-ylmethyl)-pyridin-2-yl]-(6-methoxy-pyridin-3-ylmethyl)-amine]
≤ 10 µM: Kdr | Kit | Fms
